According to patent US20260021119A1, “TETRACYCLINE DERIVATIVES” (ICM (INSTITUT DU CERVEAU ET DE LA MOELLE ÉPINIÈRE), priority 2022, published 2026):
“Also recorded” adds a separate entry of the source.

Legend:
[1] = test system: formalin-induced pain behavior; test: Formalin-induced nociceptive pain test; type: in vivo, C57/BL6 mice; conditions: for pain-related responses in the formalin test (overall): mice; for sex dependence of analgesic response: single injection, (C) 10 mg/kg, (Ia) 40 mg/kg, male vs female mice, phase 2
Procedure: The analgesic effects of the compound of formula (C) described in Example 6 (administered at doses of 5 mg/kg of animal, 10 mg/kg of animal and 20 mg/kg of animal) and the compound of formula (Ia) according to the present invention (administered at doses of 10 mg/kg of animal, 20 mg/kg of animal, and 40 mg/kg of animal) were tested using the formalin-induced nociceptive pain model (as disclosed in the publication Lopes DM, Cater HL, Thakur M et al. “A refinement to the formalin test in mice [version 2; peer review: 2 approved]” F1000Research 2019, 8:891).
To test the anti-pain effects of compounds (Ia) and (C) according to the present invention, a formalin pain test was performed, which consists in subcutaneously injecting 50 μl of a 5.0% formalin solution into the right hind paw of adult C57/BL6 mice (Taylor and Basbaum, J Pain, 2000) before scoring pain behavior. The intensity of pain was estimated by recording the cumulative time (sec) during which animals develop a licking/bitting behavior in response to formalin injection. This response is divided into a transient early (Phase I) phase followed by a more prolonged late (Phase II) phase. Pain scoring is performed by experimenters blinded to test treatments using a video recording of formalin-induced pain behavior.

[2] = test system: Gram+ and Gram- bacteria (S. aureus, E. coli, E. faecalis, P. aeruginosa); test: Antibiotic activity, summary over the bacterial strains (Examples 3 and 7); type: cell-based; design: activity against Gram+ and Gram− bacteria: dose or concentration left out as unconfirmed; key to Antibiotic activity: low: Weak antibiotic activity on only 1 of the 3 bacterial strains (i.e. S aureus); high: Strong antibiotic activity on all 3 bacterial strains; Significant antibiotic activity on two bacterial strains
Procedure: Bacterial strains used in this study were: S. aureus (ATCC25923), E. coli (ATCC25922), E. faecalis (ATCC29212) and P. aeruginosa (PA01). Strains were maintained at −80° C. in 15% (v/v) glycerol for cryoprotection. Bacteria were routinely grown in Mueller-Hinton (MH) broth at 37° C.
The susceptibility of bacterial strains to antibiotics and compounds was determined in microplates using the standard broth dilution method in accordance with the recommendations of the Comité de 1′Antibiogramme de la Société Française de Microbiologie (CA-SFM). (Members of the SFM Antibiogram Committee, R. Int. J. Antimicrob. Agents 2003, 21, 364). Briefly, the Minimal Inhibitory Concentrations (MICs) were determined with an inoculum of 10^5 CFU in 200 μL of MH broth containing two-fold serial dilutions of each drug. […] To determine all MICs, the measurements were independently repeated in triplicate.
The compound of formula (Ia) according to the invention was tested against clinical isolates Gram-bacteria (P. aeruginosa, E. coli) and Gram+ bacteria (S. aureus, E. faecalis). Minimum inhibitory concentrations (MIC) were tentatively determined and compared to known antibiotic tetracyclines (doxycycline, demeclocycline, chlortetracycline) and to the compound of formula (B) disclosed in Example 1 of the present application. The test was reproduced twice and the average MIC were calculated.
(§1) The properties of tetracycline derivatives, including the compound of formula (Ia) according to the present invention, were compared regarding the neuroprotection, anti-inflammatory effects, anti-aggregant activity, and antibiotic activity. The properties were evaluated as described herein above.
(§2) EC50s, IC50s determined graphically, *Rescue of dopamine neurons from spontaneous oxidative stress; ** TNF α release inhibition under LPS exposure, ^#Weak antibiotic activity on only 1 of the 3 bacterial strains (i.e. S aureus). ##Strong antibiotic activity on all 3 bacterial strains. ^###Significant antibiotic activity on two bacterial strains.

[3] = Brain penetration after single subcutaneous injection; type: in vivo; conditions: mouse, brain and serum, sc; 40 mg/kg single subcutaneous injection, Swiss mice, 30 min to 24 h, n=3; read-out: brain-to-plasma ratio calculated from the area under the concentration time curves
Procedure: Adult Swiss mice received a single subcutaneous injection of 40 mg/kg of the compound of formula (Ia) according to the present invention, the compound of formula (C), or doxycycline diluted in saline with 5% DMSO and 5% Tween 80 (doxycycline was used as a reference tetracycline). The mice were sacrificed 30 min, 1 h, 8 h, and 24 h after treatment. After sacrifice, brain and serum samples were collected and processed at each time point for tetracycline dosage, using an UHPLC system coupled with a triple quadrupole mass spectrometer LCMS-8030 (Shimadzu Corporation, Kyoto, Japan).

alpha-synuclein = alpha-synuclein (Homo sapiens, UniProt P37840); test: alpha-synuclein aggregation, thioflavin T (ThT) fluorescence; type: biochemical
Procedure: The antiaggregant effect of the compound of formula (Ia) according to the present invention on alpha-synuclein (αS) was evaluated in vitro by measuring the fluorescence intensity of the probe thioflavin T (ThT), a molecule that specifically binds to cross-β structures characteristic of amyloid-like aggregation. The compound of formula (Ia) was dissolved in dimethylsulfoxide to reach a concentration of […]. In this assay, 70 μM of alpha-synuclein was incubated with and without 10 μM, 20 μM and 50 μM of the compound of formula (Ia), under orbital agitation (600 rpm), at 37° C., for 5 days. After the incubation time, Tht was added to each sample and changes in the emission fluorescence spectra (λex=450 and λem=[…]) was monitored using a Horiba Fluoromax CP4 spectrofluorometer.

[4] = test system: dopaminergic neurons (TH+ neurons); test: Neuroprotection: rescue of dopamine neurons from spontaneous oxidative stress in primary cultures; type: cell-based; conditions: for EC50: Neuron, rescue of dopamine neurons from spontaneous oxidative stress, determined graphically, read-out: Neuroprotection (EC 50 μM)
Procedure: In primary cultures of dopaminergic neurons, TH+ neurons suffer from oxidative stress, leading to the death of the neurons after a few days. When cultured in the presence of a positive reference (apotransferrin), the dopaminergic neurons survive. The neuroprotective effects of 10 μM of doxycycline (DOX) and of 3 μM or 5 μM of the compound of formula (Ia) according to the present invention were evaluated, compared to the effect of 100 μg/mL of apotransferrin (APO).
as §1, §2

| Kp [3] | Anti aggregant activity at 20 μM (alpha-synuclein) | EC50 [4] | inhibition of alpha-synuclein aggregation (ThT fluorescence) (alpha-synuclein; 10 μM, 20 μM and 50 μM compound, 70 μM alpha-synuclein, 37° C., 5 days, vs control, dose dependent) | SMILES | reduction of nociceptive pain, phase 1 and 2 ([1]; 5 mg/kg, sub-chronic regimen (6 subcutaneous injections), male adult C57/BL6 mice, not different from morphine 10 mg/kg) | pain-related responses in the formalin test (overall) [1] | anti-nociceptive effects, phases 1 and 2 ([1]; single injection 10 mg/kg prior to formalin, not different from morphine 10 mg/kg) | sex dependence of analgesic response [1] | Antibiotic activity ([2]; summary over bacterial strains) | analgesic effects, phases 1 and 2 ([1]; between 20 and 40 mg/kg, sub-chronic regimen, subcutaneous, male adult C57/BL6 mice) | anti-nociceptive effects, both phases ([1]; single injection 40 mg/kg prior to formalin) | activity against Gram+ and Gram− bacteria [2] | neuroprotective effect ([4]; 3 μM and 5 μM, compared to apotransferrin 100 μg/mL) |
| --- | --- | --- | --- | --- | --- | --- | --- | --- | --- | --- | --- | --- | --- |
| 0.27 ± 0.13 | yes | 0.81 µM | – | NC(=O)C1=C(O)CC2CC3C(=C(O)C2C1=O)C(=O)c1c(O)ccc(Cl)c1[C@H]3O (stereo partly drawn) [Compound of formula (C)] | highly effective | reduce pain-related responses; also recorded: showed anti-pain effects | robust anti-nociceptive effects | male mice exhibited a better analgesic response | low^# | – | – | – | – |
| 0.21 ± 0.05 | yes | 1.58 µM | significantly inhibits | C[C@H]1c2cccc(O)c2C(=O)C2=C(O)C3C(=O)C(C(N)=O)=C(O)C[C@@H]3[C@@H](O)[C@@H]21 (stereo partly drawn) [Compound of formula (Ia), (4aS,5R,5aR,6R)-3,5,10,12-tetrahydroxy-6-methyl-1,11-dioxo-1,4,4a,5,5a,6,11,12a-octahydrotetracene-2-carboxamide] | – | reduce pain-related responses; also recorded: showed anti-pain effects | – | females responded more effectively | – | exerted analgesic effects | exerted anti-nociceptive effects | did not show any activity | highly protective |
